Experimental findings from paper PMC8750417, “Intracellular Amplifiers of Reactive Oxygen Species Affecting Mitochondria as Radiosensitizers” (Cancers, 2021) are described below.

Assay type in all cases: cell-based, human
Assay [1] relates to SAS and FaDu cells. Put plainly: Semi-quantitative radiosensitization grade over SAS and FaDu. More on the design: key: no radiosensitization (“-”); weak effect or effect in one cell line only (“+/−”); clear/strong (“+”) radiosensitization. Conditions: clonogenic survival with irradiation. How it is done:
defined low density (150-300 cells in 1 ml per well). After 8 h of incubation to allow cell adherence, 50% of the supernatant was exchanged by media containing the respective prodrugs at 2x concentration and exposed for 48 h. Treatment was then terminated by medium removal, and cells were allowed to grow for a period of ≥5-6 cell divisions estimated from the cell line-specific doubling times of the respective untreated controls (~7 days for SAS and ~10 days for FaDu cells). Control cells were always handled in parallel to the treated cells and thus exposed to the corresponding DMSO concentration(s). After the defined growth intervals, cells were fixed, stained and colonies of >50 cells were manually counted at low magnification to calculate plating efficiencies as the number of counted colonies relative to the number of seeded cells. Drug effect on clonogenic survival was then estimated by normalizing the colony formation of control cells to 1 (Table S9).
The colony formation assay was also applied for monitoring radioresponse. Here, increasing numbers of single cells relative to the irradiation dose (0-10 Gy) were seeded into 6-well plates (150-2400 SAS cells/well and 300-4800 FaDu cells/well).
Cells were treated with the drugs upon attachment as described. The total period of drug exposure was 48 h, and single dose irradiation was carried out 24 h after addition of the compounds. X-ray was performed at room temperature with a YxlonY.TU 320 system (Yxlon.international, 200 kV, 0.5 mm Cu filter) and a dose rate of ~1.3 Gy/min. Drug exposure was terminated by medium exchange and cultures were then incubated for the additional time period highlighted earlier.
Plating efficiencies were assessed and normalized for each treatment arm to the respective unirradiated control. Data were reproduced (N=3 each with n=3 wells per experiment and treatment condition). The relative clonogenic cell survival (= survival fraction, SF) was then plotted as function of the irradiation dose, and clonogenic survival curves were fitted employing the linear quadratic model as described

In assay [2] the test system is Jurkat cells. Put plainly: Jurkat flow cytometry (AnnexinA5/PI viability, DiIC1(5) MMP, monobromobimane GSH, cell cycle). The note with it: for IC50: 48 h incubation. How it is done:
Jurkat cells The cells were counted in MUSE Cell Analyzer using MUSE® Count &Viability Assay Kit (Merck-Millipore, Billerica, MA, USA) and adjusted to a density of 1.0 x 10^5/ml in RPMI 1640 medium (with 10% FCS and 1% glutamine). 9.000 cells per well per 90 µL were seeded into 96 well culture plates. The 30 mM prodrug stock solutions in DMSO were diluted to 300 µM, 100 µM, 30 µM and 10 µM in cell culture medium and 10 µL of the dilutions was pipetted to the cells, receiving final test concentrations of 30 µM, 10 µM, 3 µM and 1 µM. Every concentration was tested in triplicates. Cells with corresponding amounts of DMSO served as negative controls. After 48 h cells were mixed and 25 µL of […]
the cell suspension was incubated with 200 µL of freshly prepared staining solution, consisting of AnnexinA5-Fitc (1 µL), 1,1′,3,3,3′,3′-hexamethylindodicarbocyanine iodide (DiIC1(5), 0.4 µL) (both from ThermoFisher Scientific, Waltham, MA, USA), propidium iodide (PI, 67 ng) and monobromobimane (MBB, 33 µM, both from Sigma-Aldrich, Taufkirchen, Germany) per 1 ml Ringer’s solution (Fresenius Kabi AG, Bad Homburg, Germany). Cells were incubated for 20 min at 4°C and then analyzed in Gallios cytofluorometer™ (Beckman Coulter, Fullerton, CA, USA). Fitc and propidium iodide were excited at 488 nm; Fitc fluorescence was recorded on the FL1 sensor (525/38 nm band pass, BP) and propidium iodide fluorescence was detected on FL3 sensor (620/30 nm BP), DiIC1(5) fluorescence was excited at 638 nm and detected on FL6 sensor at 675/20 nm BP, and monobromobimane fluorescence was excited at 405 nm and detected on FL9 sensor at 430/40 nm BP. To eliminate any fluorescence bleed-through, electronic compensation was used. Data were analyzed employing Kaluza™ software Version 1.2 (Beckman Coulter, Fullerton, CA, USA) and processed in Microsoft Excel (Figures S51-S54, Table S5). Cells negative for Annexin A5-Fitc and propidium iodide were considered viable. IC50 values were determined by fitting the % values of Ax-PI- cells versus drug concentration with a sigmoidal curve using GraphPad Prism software. Reduced glutathione (an intracellular thiol) can be detected by monobromobimane, a dye that becomes fluorescent after non-enzymatic binding to thiols.[S3] For analysis of amount of mitochondrial membrane potential or reduced glutathione the mean fluorescence index (MFI) was determined from viable cells by gating on Ax -PI- events.
Table S5. Effects of the prodrugs on the viability of Jurkat cell lines (IC50 values) after 48
For orientation: Flow cytometry measures light scatter and fluorescence of single cells or particles in a stream.

Assay [3] has as its system A2780 cells. As to the kind of experiment: Mitochondrial ROS (MitoSOX, flow cytometry), A2780. The method, then:
Monitoring mitochondrial ROS (mROS)
A2780 cells were seeded in RPMI 1640 medium containing 5% FBS, 1% L-glutamine and 1% penicillin/streptomycin in a 96-well microtiter plate (total volume 0.1 mL) at a density of 250 cells/µL one day before the experiment. On the day of the experiment, the cells were washed with DPBS buffer and a fresh portion of RPMI 1640 medium containing 5% FBS, 1% L-glutamine and 1% penicillin/streptomycin (100 µL) was added followed by addition of compounds (1 μL of stock solutions in DMSO, final concentration of the prodrugs was 5, 10 μM and 30 μM) or carrier only (DMSO, 1 µL, final concentration 1 %, v/v) and incubation for 1 or 2 h in the dark chamber filled with CO 2 (5%) at 37 °C. After that, the cells were washed twice with DPBS buffer and the medium was replaced with HBSS (Hanks' Balanced Salt solution, 50 μL) containing MitoSOX (Red Mitochondrial Superoxide Indicator, Thermo-Fisher, Catalog number M36008, final concentration 5 µM obtained by adding 0.5 µ L of the 0.5 mM stock solution of MitoSOX in DMSO to the HBSS ) […]
(1 picture or pasted object on this page, not shown here) […]
and the cells were incubated in the dark chamber filled with CO2 (5%) at 37 °C for 20 min.
Next, the cells were detached from the culture dish using trypsin/EDTA (0.025%/0.01%, v/v, 50 µL). The cells were re-suspended in RPMI 1640 medium containing 5% FBS, 1% L-glutamine and 1% penicillin/streptomycin (100 µL). Finally, the fluorescence of live cells (λex = 488 nm, λem = 578 nm) in the suspensions was determined by using flow cytometry

Some results are limits rather than exact numbers.

For the compound `[Fe+2].c1cc[cH-]c1.c1cc[cH-]c1` [compound 6, ferrocene], the Radiosensitization entry in assay [1] (25 µM) is “-”. This compound registered an IC50 in assay [2] of over 100 µM.
With `CCOC(=O)CCCCCn1cc(CN(C(=O)OCc2ccc(B3OC(C)(C)C(C)(C)O3)cc2)[c-]2cccc2)nn1.[Fe+2].c1cc[cH-]c1` [compound 1], in assay [3], the “mitochondrial ROS (mROS) vs non-treated cells” value is “substantially weaker”. Moreover, in assay [2] (48 h), the “effect on MMP” value is reported as “slight increase” and the “effect on intracellular GSH amount” value is listed as “slight increase”. The same compound displayed an IC50 in assay [2] of 30 ± 4 µM.
As for `CC1(C)OB(c2ccc(COC(=O)N(Cc3cn(Cc4ccc(Cn5cc(Cc6ccccc6)nn5)cc4)nn3)[c-]3cccc3)cc2)OC1(C)C.[Fe+2].c1cc[cH-]c1` [2c], in assay [1] (10 µM), the Radiosensitization result is given as “+/−”. Also, the Radiosensitization result in assay [1] (25 µM) is “+”. In addition, in assay [3], the “mitochondrial ROS (mROS) vs non-treated cells” value is recorded as “significantly increased”. Also, in assay [2] (48 h), the “effect on MMP” value was “decrease”, the “effect on cell cycle” value is given as “cell-cycle arrest in the G0/G1 phase” and the “effect on intracellular GSH amount” value is on record as “unaffected”. Also, the “mechanism of cell death” value in assay [2] (48 h, Annexin A5/PI) is listed as “mainly via necrosis”. Moreover, the half-inhibitory concentration (IC50) in assay [2] was found to be 5 ± 2 µM.
Take `CC1(C)OB(c2ccc(COC(=O)N(Cc3cccc(CN4CCCCC4)c3)[c-]3cccc3)cc2)OC1(C)C.[Fe+2].c1cc[cH-]c1` [5b]: the Radiosensitization entry in assay [1] (1 µM) and in assay [1] (2.5 µM) was “+” each time. Moreover, in assay [3], the “mitochondrial ROS (mROS) vs non-treated cells” value was “did not affect mROS”. This compound registered an IC50 in assay [2] of 7.2 ± 0.1 µM.

As a reminder, the IC50 is the concentration at which inhibition is half-maximal.
